{"source": "patent EP4609859A1", "about": "“INHIBITORS OF THE GENE SMPD1 FOR THE TREATMENT OF SPINAL MUSCULAR ATROPHY” (Universidad Pablo de Olavide, priority 2024, dated 2025)", "key": {"[1]": {"target": "T1, SMPD1 (Homo sapiens, UniProt P17405)", "T1 construct": "host or cells: human SMA type 2 patient fibroblasts (SMAII)", "T1 sequence (P17405 47-631)": "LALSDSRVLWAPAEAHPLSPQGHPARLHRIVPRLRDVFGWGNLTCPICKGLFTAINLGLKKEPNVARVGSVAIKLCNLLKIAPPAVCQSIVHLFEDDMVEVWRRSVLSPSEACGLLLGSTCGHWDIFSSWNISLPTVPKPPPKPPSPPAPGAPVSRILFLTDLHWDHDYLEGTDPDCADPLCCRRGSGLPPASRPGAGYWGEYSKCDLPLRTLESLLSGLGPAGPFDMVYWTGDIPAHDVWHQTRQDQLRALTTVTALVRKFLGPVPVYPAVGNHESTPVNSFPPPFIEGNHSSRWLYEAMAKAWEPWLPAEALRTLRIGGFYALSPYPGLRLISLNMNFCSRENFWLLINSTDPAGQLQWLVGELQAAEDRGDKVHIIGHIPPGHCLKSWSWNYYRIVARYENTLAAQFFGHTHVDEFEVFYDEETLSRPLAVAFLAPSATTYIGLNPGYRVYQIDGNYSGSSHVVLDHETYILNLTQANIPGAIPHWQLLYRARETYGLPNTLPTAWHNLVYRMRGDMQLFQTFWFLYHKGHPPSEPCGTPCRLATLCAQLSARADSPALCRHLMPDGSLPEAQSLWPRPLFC", "assay": "Immunofluorescence (CTCF) of SMPD1 in differentiated human SMA MNs", "type": "cell-based", "conditions": "SMAI MNs, 10µM, 24 h; untreated 126.7±5.74; p<0.0001", "excerpt": "Three human iPSCs lines were used in the present work. The GM23411*B (Coriell Institute) iPSC cell line obtained from a healthy […] individual was used as control. The GM23240*B (Coriell Institute) iPSCs obtained from a fibroblast cell line of a […] SMA type 2 patient (2 copies SMN2; deletion exon7-8 in SMN1) was used as SMAII condition. SMAII patient was previously classified as SMA type 1, but several data supported re-classification to SMA type 2. The CS84iSMA-nxx (Cedar Sinai, Los Angeles, USA) iPSCs obtained from a lymphoblast cell line of a […] SMA type 1 patient (2 copies SMN2; deletion exon7-8 in SMN1) was used as SMAI condition. […]\n(§1) Cultured cells were fixed with 4% paraformaldehyde (Sigma) for 10 min and cold methanol (Sigma) for 30 min more. […] Quantification of fluorescence intensity was performed blinded, using the NIH ImageJ software (Schindelin et al., 2012). Using phase contrast images, the cell perimeter was manually delimited and transferred to the corresponding fluorescence images. The Integrated Density (IntDen) was measured in the selected area of the cell. Three non-fluorescent surrounding regions were measured to set up the background readings. The fluorescence intensity was calculated using the following formula: Corrected Total Cell Fluorescence (CTCF) = IntDen (sum of the values of the pixels in the selection) - (area of the cell x mean fluorescence of the background)."}, "[2]": {"system": "SMN protein", "assay": "Western blot of SMN in iPSC-differentiated human SMA MNs", "type": "cell-based", "conditions": "remaining doses of 5µM, 10µM, 20µM in SMAI and SMAII MNs, 24 h", "excerpt": "Three human iPSCs lines were used in the present work. The GM23411*B (Coriell Institute) iPSC cell line obtained from a healthy […] individual was used as control. The GM23240*B (Coriell Institute) iPSCs obtained from a fibroblast cell line of a […] SMA type 2 patient (2 copies SMN2; deletion exon7-8 in SMN1) was used as SMAII condition. SMAII patient was previously classified as SMA type 1, but several data supported re-classification to SMA type 2. The CS84iSMA-nxx (Cedar Sinai, Los Angeles, USA) iPSCs obtained from a lymphoblast cell line of a […] SMA type 1 patient (2 copies SMN2; deletion exon7-8 in SMN1) was used as SMAI condition.\nHuman iPSCs were differentiated to MNs as previously described (de la Fuente et al., 2020; Du et al., 2015). Cell lines were cultured and expanded on Geltrex (Sigma)-coated plates in Essential 8 medium (Gibco). Neuroepithelial cells and MN progenitors were generated following the established protocol. To induce MN differentiation, MN progenitors were detached with Accutase (Gibco) and cultured in suspension in MN induction medium (DMEM/F12: NBM plus 1:1 supplemented with B27, L-glutamine [all from Gibco], 0.1mM ascorbic acid [Sigma], 3µM CHIR99021; 2µM SB431512, 2µM DMH1 [all from Cayman, Ann Harbor, MI, USA], 0.5µM retinoic acid [Sigma], and 0.1µM purmorphamine [Cayman]). […]"}, "[3]": {"target": "T1, SMPD1", "assay": "Immunofluorescence (CTCF) of SMPD1 in human SMA fibroblasts", "type": "cell-based", "conditions": "SMAII fibroblasts, 20µM, 24 h; untreated 105.8±5.64; p<0.0001", "procedure": "Two human fibroblasts cell lines from SMA patients (GM03813, SMA type 2 patient, SMAII; and GM09677, SMA type 1 patient, SMAI) and one healthy control (GM03814, Control) were obtained and cultured following the manufacturer instructions. Fibroblasts were maintained in Eagle's Minimum Essential Medium (MEM) (Sigma) supplemented with 15% (v/v) non-inactivated fetal bovine serum (FBS) (Gibco), […] of L-Glutamine (Gibco), 1% (v/v) non-essential amino acids, and 20µg/ml of Penicillin-Streptomycin (Gibco). For western blot analysis, cells were plated at 3,000-4,000 cells/cm2 in 35mm dishes and cultured in supplemented MEM for 24 h. […]\nas §1"}, "[4]": {"system": "nematode development", "assay": "Visible effect of drug treatment on nematode development", "type": "in vivo, C. elegans", "conditions": "at the concentrations tested in the SMN-1 assay", "procedure": "(§2) RNAi feeding was performed as described (Kamath and Ahringer, 2003). RNAi clones belong to the Aringher gene library were used: JA:C41G7.1 (smn-1), JA:T18D3.7 (tsct-1), JA:WO3G1.7 (asm-3), JA:C07A12.7 (C07A12.7), JA:C10E2.3 (hda-4), JA:K09A9.4 (usp-33), JA:R01B10.1 (cpi-2), JA:K08B4.6 (cpi-1), JA:K06A4.3 (gsnl-1), JA:F23H11.4 (F23H11.4), JA:T18H9.7 (pacs-1), JA:C41G7.1 (smn-1) and MV_SV: mv_ZK455.4 (asm-2) from Marc Vidal's gene library (Kim et al., 2005). For smn-1 expression assays, gravid hermaphrodites were transferred to empty plasmid pL4440 or RNAi plates, incubated at 20°C for 48 hours and the next generation was analyzed at the L4 stage. For the drug assay, NGM plates were prepared at the indicated concentrations and the respective vehicle was used as a control, then proceeded as in the RNAi assay."}, "[5]": {"system": "SMN protein", "assay": "Western blot of SMN in human SMA patient fibroblasts", "type": "cell-based", "conditions": "SMAII and SMAI fibroblasts, 5µM, 10µM, or 25µM, 24 h", "protocol": "Fibroblasts were maintained in Eagle's Minimum Essential Medium (MEM) (Sigma) supplemented with 15% (v/v) non-inactivated fetal bovine serum (FBS) (Gibco), 0.5M of L-Glutamine (Gibco), 1% (v/v) non-essential amino acids, and 20µg/ml of Penicillin-Streptomycin (Gibco). For western blot analysis, cells were plated at 3,000-4,000 cells/cm2 in 35mm dishes and cultured in supplemented MEM for 24 h. For immunofluorescence experiments, 3,000 cells/well were plated in collagen-coated 1cm2 glass coverslips placed into four-well dishes and fixed in 4% paraformaldehyde (Sigma) in PBS.\nWestern blots were performed as previously described (Gou-Fabregas et al., 2009). Cell lysates were resolved in sodium dodecyl-sulfate polyacrylamide (SDS-PAGE) gels and transferred onto polyvinylidene difluoride (PVDF) Immobilon-P transfer membranes (Millipore, Burlington, MA, USA) using an Amersham Biosciences semidry Trans-Blot (Buckinghamshire, UK). Membranes were blotted with: anti-SMN (1: 5,000, Cat. No. 610646, BD Transduction Laboratories, Franklin Lakes, NJ, USA) and anti-SMPD1 (1: 300, Cat. No. 14609-1-AP, ProteinTech, Manchester, UK). To control the specific protein content per lane, membranes were reproved with anti-α-tubulin antibody (1: 50,000, Cat. No. T5168, Sigma). […]"}, "[6]": {"system": "SMN-1", "assay": "SMN-1 level by head fluorescence in C. elegans strain mCherry::smn-1 (PHX2635) after drug treatment", "type": "in vivo", "conditions": "for level of SMN-1, repeated experiments on different days: Fig. 11, vs non-treated animals", "excerpt": "C. elegans strains were cultivated under standard conditions (Stiernagle, 2006). The strains used are as follows: PHX2635: smn-1(syb2635); BN1158: bqSi1152[pBN521(unc-119(+) eft-3p::Frt::mCh::his-58::Frt::UPRT)]II; bqSi577[pBN306(unc-119(+) myo-2p::GFP)] IV. unc-119(ed9)III . The Escherichia coli strains used were: OP50 and HT115.\nThe strain PHX2635: smn-1(syb2635) was generated by CRISPR technology, we introduced the coding sequence of the fluorescent protein m-Cherry upstream of the TAA stop codon of the C. elegans SMN1 homologous gene, smn-1, as indicated in the sequence: [formula]\nas §2, with “For smn-1 expression assays, gravid hermaphrodites were transferred to empty plasmid pL4440 or RNAi plates, incubated at 20°C for 48 hours and the next generation was analyzed at the L4 stage.” left out\nL4 worms were mounted in a coverslip with a 2% agarose pad. C. elegans confocal images were acquired using a Nikon A1R microscope equipped with a 60x Plan Apo lens of Numerical Aperture 1.4. Twelve pictures were taken for each worm to be integrated in a Z image. […] Laser intensity, gain and pixel scan speed remained constant along all sets of experiments.\nFor image analysis, we used FIJI software. The experimentalist drew manually a ROI containing between the second pharynx bulb and the mouth of the nematode. Within this area, mCherry expression was detected using an intensity threshold that remained constant along all images. This minimum intensity level was defined by the experimenter. Within the thresholded volume, we measured the integrated density using the plugin 3D object counter (Bolte and Cordelières, 2006). […]"}}, "data": [{"molecule": "CN(C)CCCN1c2ccccc2CCc2ccc(Cl)cc21", "note": "[clomipramine]", "values": [{"measurement": "SMPD1 relative fluorescence in cell soma (CTCF)", "setting": "[1]", "value": "91.62±3.64"}, {"measurement": "SMN protein compared to untreated control", "setting": "[2]", "value": "No significant differences"}, {"measurement": "SMPD1 relative fluorescence in cell soma (CTCF)", "setting": "[3]", "value": "56.59±4.03"}, {"measurement": "visible effect on nematode development", "setting": "[4]", "value": "did not show a visible negative effect"}, {"measurement": "SMN protein level", "setting": "[5]", "value": "did not increase SMN protein level"}, {"measurement": "SMN-1 level after treatment exclusively during the adult stage", "setting": "[6]; 100 µM, 48 hours, started at adulthood, vs untreated", "value": "significant increase"}, {"measurement": "level of SMN-1, repeated experiments on different days", "setting": "[6]; 100 µM", "value": "statistically significant increase"}]}, {"molecule": "CNCCCN1c2ccccc2CCc2ccccc21", "note": "[desipramine]", "values": [{"measurement": "visible effect on nematode development", "setting": "[4]", "value": "delay in nematode development"}, {"measurement": "level of SMN-1, repeated experiments on different days", "setting": "[6]; 500 µM", "value": "statistically significant increase"}]}, {"molecule": "CCOC(=O)C1=C(COCCN)NC(C)=C(C(=O)OC)C1c1ccccc1Cl", "note": "(stereo not shown) [amlodipine]", "values": [{"measurement": "visible effect on nematode development", "setting": "[4]", "value": "delay in nematode development"}]}]}
